# Measured values from PubChem BioAssay AID1053138 (Broad Institute, 2014).
# Active and inactive are the calls of the source. How the calls were made is not given here.
# Legend:
# [1] = Trib1 mRNA induction in HepG2 cells, dose response, cell-based, qPCR (AID 1053138); settings: HepG2 Trib1 mRNA qPCR, 24 h; measured here: Trib1 mRNA max fold induction; stronger effect = higher value
# [2] = tested on: HepG2 Trib1 mRNA qPCR, 24 h; assay: as above
SMILES,fold change [1],AC50 [2]
CN1C(=O)c2cc(NC(=O)c3ccc(C(F)(F)F)cc3)ccc2OC[C@@H]2O[C@H](CC(=O)NC3Cc4ccccc4C3)CC[C@@H]21,3.7,310 nM
CN1C(=O)c2cc(NC(=O)c3ccc(C(F)(F)F)cc3)ccc2OC[C@@H]2O[C@H](CC(=O)NC3Cc4ccccc4C3)CC[C@H]21,1.3,> 25000 nM (inactive)
CN1C(=O)c2cc(NC(=O)c3ccc(C(F)(F)F)cc3)ccc2OC[C@@H]2O[C@@H](CC(=O)NC3Cc4ccccc4C3)CC[C@@H]21,2.7,1700 nM
